Data from patent publication US9957267B2, “Somatostatin modulators and uses thereof” (Crinetics Pharmaceuticals, Inc., priority 2015, dated 2018).
Where two headings read alike, the source gives them in different places.

What was measured:
Format in all cases: cell-based
[1] = biological target: T1, human somatostatin receptor subtype 2a (Homo sapiens, UniProt P30874); assay: cAMP assay for SSTR2a agonists (HTRF cAMP kit, NKH-477 stimulated); settings: CHO cells stably expressing human SSTR2a, 1.6 μM NKH-477
T1 construct: expressed in transfected cells
T1 sequence (P30874 whole entry): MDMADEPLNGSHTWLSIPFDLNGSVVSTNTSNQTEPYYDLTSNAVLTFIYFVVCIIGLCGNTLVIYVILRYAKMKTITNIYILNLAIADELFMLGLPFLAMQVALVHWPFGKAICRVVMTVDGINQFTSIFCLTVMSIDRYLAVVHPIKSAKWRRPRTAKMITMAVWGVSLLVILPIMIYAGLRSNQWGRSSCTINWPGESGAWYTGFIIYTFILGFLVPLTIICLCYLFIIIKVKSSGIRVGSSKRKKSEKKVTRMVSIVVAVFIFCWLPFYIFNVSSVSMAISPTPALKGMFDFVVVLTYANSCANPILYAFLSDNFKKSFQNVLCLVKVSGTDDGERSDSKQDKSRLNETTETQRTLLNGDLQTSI
Experimental: (§1) Chinese hamster ovary (CHO) cells stably expressing one of the six human or rodent somatostatin receptor subtypes are grown to 85-100% confluence on standard tissue culture dishes in F12-Ham's growth media (Hyclone) with following additives: 10% donor calf serum (Hyclone), 200 U/mL penicillin (Hyclone), 200 μg/mL streptomycin (Hyclone), 20 mM HEPES (Hyclone), 200 μg/mL hygromycin Hyclone.
(§2) General overview: All SSTR subtypes are Gi coupled G-protein coupled receptors (GPCRs) that lead to decreases in intracellular cyclic AMP (cAMP) when activated by an agonist. Therefore, measurement of intracellular cAMP levels can be used to assess whether compounds of the invention are agonists of SSTR subtypes (John Kelly, Troy Stevens, W. Joseph Thompson, and Roland Seifert, Current Protocols in Pharmacology, 2005, 2.2.1-2.2). One example of an intracellular cAMP assay is described below.
Four days prior to the assay, 5000 Chinese hamster ovary (CHO) cells stably expressing the human somatostatin receptor subtype 2a are plated in each well of a 96-well tissue culture plate (Nest Biotech Cell, flat bottom with low evaporation tissue culture treated; Polystyrene; Non-Pyrogenic) in F12-Ham's media (100 μL/well) supplemented with 200 μg/mL of hygromycin. Incubate at 37 C, 5% CO2, 95% humidity for four days. The cells should reach full confluence. On the day of the assay, various dilutions of the compounds of the invention are prepared in assay buffer (HRTF cAMP kit, Cisbio) in the presence of 1.6 μM NKH-477 (a water-soluble forskolin derivative) and 50 μL of the dilutions are added to the cultured cells and incubated for 20 minutes at 37° C. […] 50 μL of lysis buffer (HRTF cAMP kit, Cisbio) is added to each well and incubated at room temperature for 30 minutes, after which 150 μL assay buffer is added to each well. In a 384-well plate (Grenier, 784-080), 10 μL of assay mixture is added to 10 μL of developing mixture, containing cAMP detection and visualization antibodies are added and the assay is allowed incubate for 1-24 hours at room temperature. The intracellular cAMP concentrations are then measured using a commercially available detection kit (for example, the cAMP HTRF kit, Cisbio). The measured intracellular cAMP concentrations are plotted vs. the concentration of the compounds of the invention and the EC50 of the compounds are calculated using standard methods.

SSTR3 = SSTR3 (UniProt P32745); assay: cAMP functional agonist assay, CHO cells expressing SSTR3; settings: CHO cells stably expressing SSTR3, cAMP
Sequence of SSTR3 (P32745 whole entry): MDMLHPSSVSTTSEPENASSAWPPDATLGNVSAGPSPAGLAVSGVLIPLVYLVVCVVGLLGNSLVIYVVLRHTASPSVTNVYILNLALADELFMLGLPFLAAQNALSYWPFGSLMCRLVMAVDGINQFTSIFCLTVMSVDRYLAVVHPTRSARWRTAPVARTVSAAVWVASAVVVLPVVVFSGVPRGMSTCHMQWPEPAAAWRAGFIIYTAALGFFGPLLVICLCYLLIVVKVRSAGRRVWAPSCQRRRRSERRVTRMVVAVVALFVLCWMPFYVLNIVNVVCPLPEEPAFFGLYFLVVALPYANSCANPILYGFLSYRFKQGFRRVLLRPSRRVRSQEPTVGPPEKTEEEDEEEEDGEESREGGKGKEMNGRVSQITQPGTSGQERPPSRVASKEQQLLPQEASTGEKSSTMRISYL
Experimental: as §1, §2

SSTR4 = biological target: T2, SSTR4 (Homo sapiens, UniProt P31391); assay: cAMP functional agonist assay, CHO cells expressing SSTR4
T2 construct: expressed in transfected cells
T2 sequence (P31391 whole entry): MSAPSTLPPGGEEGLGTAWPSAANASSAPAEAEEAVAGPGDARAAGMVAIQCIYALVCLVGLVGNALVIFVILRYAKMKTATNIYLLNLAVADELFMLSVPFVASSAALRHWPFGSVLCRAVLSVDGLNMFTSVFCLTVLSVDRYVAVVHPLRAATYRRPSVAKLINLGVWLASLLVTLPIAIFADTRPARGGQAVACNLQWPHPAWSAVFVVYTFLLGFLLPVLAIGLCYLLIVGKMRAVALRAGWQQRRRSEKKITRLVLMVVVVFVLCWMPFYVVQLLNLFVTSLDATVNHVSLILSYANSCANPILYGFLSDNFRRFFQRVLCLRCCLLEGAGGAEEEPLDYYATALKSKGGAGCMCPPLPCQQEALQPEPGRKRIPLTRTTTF
Experimental: as §1
(§3) General overview: All SSTR subtypes are Gi coupled G-protein coupled receptors (GPCRs) that lead to decreases in intracellular cyclic AMP (cAMP) when activated by an agonist. […] One example of an intracellular cAMP assay is described below.

SSTR5 = biological target: T3, SSTR5 (Homo sapiens, UniProt P35346); assay: cAMP functional agonist assay, CHO cells expressing SSTR5; settings: CHO cells stably expressing SSTR5, cAMP
T3 construct: expressed in transfected cells
T3 sequence (P35346 whole entry): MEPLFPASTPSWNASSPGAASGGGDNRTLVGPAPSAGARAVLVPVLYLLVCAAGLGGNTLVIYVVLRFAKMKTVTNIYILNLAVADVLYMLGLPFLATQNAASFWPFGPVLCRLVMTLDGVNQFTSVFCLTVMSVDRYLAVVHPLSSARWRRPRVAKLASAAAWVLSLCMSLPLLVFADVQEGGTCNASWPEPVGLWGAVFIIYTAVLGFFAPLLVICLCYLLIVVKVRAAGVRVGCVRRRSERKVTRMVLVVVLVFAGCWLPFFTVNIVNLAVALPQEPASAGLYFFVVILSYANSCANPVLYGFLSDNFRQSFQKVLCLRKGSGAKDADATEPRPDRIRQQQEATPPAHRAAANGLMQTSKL
Experimental: as §1, §2

SSTR1 = biological target: T4, SSTR1 (Homo sapiens, UniProt P30872); assay: cAMP functional agonist assay, CHO cells expressing SSTR1
T4 construct: expressed in transfected cells
T4 sequence (P30872 whole entry): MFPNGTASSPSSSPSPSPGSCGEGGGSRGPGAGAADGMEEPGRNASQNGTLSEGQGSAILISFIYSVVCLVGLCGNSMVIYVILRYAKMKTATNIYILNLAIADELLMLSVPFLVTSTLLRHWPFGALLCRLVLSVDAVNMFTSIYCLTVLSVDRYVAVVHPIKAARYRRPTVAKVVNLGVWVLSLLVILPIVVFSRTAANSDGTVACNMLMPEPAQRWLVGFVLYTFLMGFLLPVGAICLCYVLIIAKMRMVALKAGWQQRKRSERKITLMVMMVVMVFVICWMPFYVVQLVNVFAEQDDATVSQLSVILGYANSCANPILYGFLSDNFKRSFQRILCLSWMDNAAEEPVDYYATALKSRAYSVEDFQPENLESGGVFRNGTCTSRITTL
Experimental: as §1, §3

[2] = CHO cells stably expressing SSTR4, cAMP, read-out: SSTR4 EC50

EC50 [1]	EC50 (SSTR3)	EC50 (SSTR4; [2])	EC50 (SSTR5)	EC50 (SSTR1)	EC50 (SSTR4)	Molecule
< 100 nM	100 to 10000 nM	100 to 10000 nM	100 to 10000 nM			3-[5-({[(2S)-2-aminobutyl](methyl)amino}methyl)-6-(3,5-dimethylphenyl)-4-oxo-3H,4H-pyrido[2,3-d]pyrimidin-3-yl]-5-fluorobenzamide [Compound A-64]
100 to 10000 nM	100 to 10000 nM	< 100 nM	> 10000 nM			Cc1cc(C)cc(-c2cnc3ncn(-c4cccc(O)c4)c(=O)c3c2CN(CCN)Cc2ccccc2)c1 [Compound A-5, 5-{[(2-aminoethyl)(benzyl)amino]methyl}-6-(3,5-dimethylphenyl)-3-(3-hydroxyphenyl)-3H,4H-pyrido[2,3-d]pyrimidin-4-one]
100 to 10000 nM		100 to 10000 nM	> 10000 nM			Cc1cc(C)cc(-c2cnc3ncn(-c4cccc(O)c4)c(=O)c3c2CN(C)CCNCc2ccccc2)c1 [Compound A-6, 5-({[2-(benzylamino)ethyl](methyl)amino}methyl)-6-(3,5-dimethylphenyl)-3-(3-hydroxyphenyl)-3H,4H-pyrido[2,3-d]pyrimidin-4-one]
100 to 10000 nM	100 to 10000 nM	< 100 nM	> 10000 nM			Cc1ccccc1-c1cnc2ncn(-c3cccc(O)c3)c(=O)c2c1CN(C)CC1CCCCN1 (stereo not drawn) [Compound A-20, 3-(3-hydroxyphenyl)-5-{[methyl(piperidin-2-ylmethyl)amino]methyl}-6-(2-methylphenyl)-3H,4H-pyrido[2,3-d]pyrimidin-4-one]
100 to 10000 nM		< 100 nM				CC(C)c1cccc(-c2cnc3ncn(-c4cccc(O)c4)c(=O)c3c2CN(C)CC2CCCCN2)c1 (stereo not drawn) [Compound A-22, 3-(3-hydroxyphenyl)-5-{[methyl(piperidin-2-ylmethyl)amino]methyl}-6-[3-(propan-2-yl)phenyl]-3H,4H-pyrido[2,3-d]pyrimidin-4-one]
< 100 nM	< 100 nM	< 100 nM				COc1cccc(-c2cnc3ncn(-c4cccc(O)c4)c(=O)c3c2CN(C)CC2CCCCN2)c1 (stereo not drawn) [Compound A-23, 3-(3-hydroxyphenyl)-6-(3-methoxyphenyl)-5-{[methyl(piperidin-2-ylmethyl)amino]methyl}-3H,4H-pyrido[2,3-d]pyrimidin-4-one]
< 100 nM	< 100 nM	< 100 nM	100 to 10000 nM			Cc1c(F)cccc1-c1cnc2ncn(-c3cccc(O)c3)c(=O)c2c1CN(C)CC1CCCCN1 (stereo not drawn) [Compound A-26, 6-(3-fluoro-2-methylphenyl)-3-(3-hydroxyphenyl)-5-{[methyl(piperidin-2-ylmethyl)amino]methyl}-3H,4H-pyrido[2,3-d]pyrimidin-4-one]
< 100 nM	100 to 10000 nM	< 100 nM				Cc1cc(Cl)cc(-c2cnc3ncn(-c4cccc(C(N)=O)c4)c(=O)c3c2CN(C)C[C@@H]2CCCN2)c1 [Compound A-31, 3-[6-(3-chloro-5-methylphenyl)-5-({methyl[(2S)-pyrrolidin-2-ylmethyl]amino}methyl)-4-oxo-3H,4H-pyrido[2,3-d]pyrimidin-3-yl]benzamide]
< 100 nM	100 to 10000 nM	< 100 nM	> 10000 nM			Cc1cc(CO)cc(-c2cnc3ncn(-c4cccc(O)c4)c(=O)c3c2CN(C)C[C@@H]2CCCN2)c1 [Compound A-37, 6-[3-(hydroxymethyl)-5-methylphenyl]-3-(3-hydroxyphenyl)-5-({methyl[(2S)-pyrrolidin-2-ylmethyl]amino}methyl)-3H,4H-pyrido[2,3-d]pyrimidin-4-one]
	< 100 nM		100 to 10000 nM	100 to 10000 nM	< 100 nM	CN(Cc1c(-c2cc(Cl)cc(CO)c2)cnc2ncn(-c3cccc(O)c3)c(=O)c12)C[C@@H]1CCCN1 [Compound A-38, 6-[3-chloro-5-(hydroxymethyl)phenyl]-3-(3-hydroxyphenyl)-5-({methyl[(2S)-pyrrolidin-2-ylmethyl]amino}methyl)-3H,4H-pyrido[2,3-d]pyrimidin-4-one]
	100 to 10000 nM		> 10000 nM	> 10000 nM	< 100 nM	Cc1cc(C)cc(-c2cnc3ncn(-c4cccc(C(N)=O)c4)c(=O)c3c2CN(C)C[C@@H]2CCCN2)c1 [Compound A-39, 3-[6-(3,5-dimethylphenyl)-5-({methyl[(2S)-pyrrolidin-2-ylmethyl]amino}methyl)-4-oxo-3H,4H-pyrido[2,3-d]pyrimidin-3-yl]benzamide]
	100 to 10000 nM		> 10000 nM	100 to 10000 nM	< 100 nM	Cc1cc(C)cc(-c2cnc3ncn(-c4cccc(C#N)c4)c(=O)c3c2CN(C)C[C@@H]2CCCN2)c1 [Compound A-42, 3-[6-(3,5-dimethylphenyl)-5-({methyl[(2S)-pyrrolidin-2-ylmethyl]amino}methyl)-4-oxo-3H,4H-pyrido[2,3-d]pyrimidin-3-yl]benzonitrile]
	< 100 nM		> 10000 nM	100 to 10000 nM	< 100 nM	Cc1cc(C)cc(-c2cnc3ncn(-c4cc(C)cc(O)c4)c(=O)c3c2CN(C)C[C@@H]2CCCN2)c1 [Compound A-44, 6-(3,5-dimethylphenyl)-3-(3-hydroxy-5-methylphenyl)-5-({methyl[(2S)-pyrrolidin-2-ylmethyl]amino}methyl)-3H,4H-pyrido[2,3-d]pyrimidin-4-one]
	< 100 nM		> 10000 nM	100 to 10000 nM	< 100 nM	Cc1cc(C)cc(-c2cnc3ncn(-c4cc(O)cc(F)c4)c(=O)c3c2CN(C)C[C@@H]2CCCN2)c1 [Compound A-45, 6-(3,5-dimethylphenyl)-3-(3-fluoro-5-hydroxyphenyl)-5-({methyl[(2S)-pyrrolidin-2-ylmethyl]amino}methyl)-3H,4H-pyrido[2,3-d]pyrimidin-4-one]
100 to 10000 nM	100 to 10000 nM	< 100 nM				Cc1cc(C)cc(-c2cnc3ncn(-c4cc(F)cc(C#N)c4)c(=O)c3c2CN(C)C[C@@H]2CCCN2)c1 [Compound A-46, 3-[6-(3,5-dimethylphenyl)-5-({methyl[(2S)-pyrrolidin-2-ylmethyl]amino}methyl)-4-oxo-3H,4H-pyrido[2,3-d]pyrimidin-3-yl]-5-fluorobenzonitrile]
< 100 nM	100 to 10000 nM	< 100 nM				CCN(CCN)Cc1c(-c2cc(C)cc(Cl)c2)cnc2nc(C)n(-c3cc(O)cc(F)c3)c(=O)c12 [Compound A-67, 5-{[(2-aminoethyl)(ethyl)amino]methyl}-6-(3-chloro-5-methylphenyl)-3-(3-fluoro-5-hydroxyphenyl)-2-methyl-3H,4H-pyrido[2,3-d]pyrimidin-4-one]
< 100 nM	< 100 nM	< 100 nM				CN(Cc1c(-c2cccc3ccccc23)cnc2ncn(-c3cccc(O)c3)c(=O)c12)CC1CCCCN1 (stereo not drawn) [Compound A-69, 3-(3-hydroxy-phenyl)-5-[(methyl-piperidin-2-ylmethyl-amino)-methyl]-6-naphthalen-1-yl-3H-pyrido[2,3-d]pyrimidin-4-one]
< 100 nM	< 100 nM	< 100 nM				Cc1cc(Cl)cc(-c2cnc3ncn(-c4cc(O)cc(C#N)c4)c(=O)c3c2CN(C)C[C@@H]2CCCN2)c1 [Compound A-71, 6-(3-methyl-5-chlorophenyl)-3-(3-cyano-5-hydroxyphenyl)-5-({methyl[(2S)-pyrrolidin-2-ylmethyl]amino}methyl)-3H,4H-pyrido[2,3-d]pyrimidin-4-one]
